Measurements published in ChEMBL document CHEMBL4765473, “PF-07059013: A Noncovalent Modulator of Hemoglobin for Treatment of Sickle Cell Disease” (J Med Chem, 2021).
The source made the active and inactive calls. The calls are words filed in the database; no cut-off is given here.

tested on: not listed separately; experiment: Distribution coefficient, log D of the compound by shake flask method; assay type: physicochemical; details: octanol/water

SMILES | logD
Cc1n[nH]cc1-c1cnc(N)c(O[C@@H](C)c2cc(F)ccc2-n2cccn2)c1 | 3.2
C[C@H](Oc1cc2cc(C(N)=O)ccc2nc1N)c1cc2c(cnn2CCO)cc1-n1cccn1 | 2.1
C[C@H](Oc1cc2cc(F)ccc2nc1N)c1[nH]c(=O)ccc1-n1cccn1 [PF-07059013] | 2.4
C[C@H](Oc1cc2cc(C(N)=O)ccc2nc1N)c1nc(OCCO)ccc1-n1cccn1 | 1.8
C[C@H](Oc1cc2cc(F)ccc2nc1N)c1cc2c(cnn2CC(=O)O)cc1-n1cccn1 | 0.5
C[C@H](Oc1cc2cc(F)ccc2nc1N)c1cc2c(cnn2CCO)cc1-n1cccn1 | 3.3

target: Cytochrome P450 3A4 (Homo sapiens, UniProt P08684); experiment: Inhibition of CYP3A4 (unknown origin); assay type: ADME; details: not given
Sequence (P08684 whole entry): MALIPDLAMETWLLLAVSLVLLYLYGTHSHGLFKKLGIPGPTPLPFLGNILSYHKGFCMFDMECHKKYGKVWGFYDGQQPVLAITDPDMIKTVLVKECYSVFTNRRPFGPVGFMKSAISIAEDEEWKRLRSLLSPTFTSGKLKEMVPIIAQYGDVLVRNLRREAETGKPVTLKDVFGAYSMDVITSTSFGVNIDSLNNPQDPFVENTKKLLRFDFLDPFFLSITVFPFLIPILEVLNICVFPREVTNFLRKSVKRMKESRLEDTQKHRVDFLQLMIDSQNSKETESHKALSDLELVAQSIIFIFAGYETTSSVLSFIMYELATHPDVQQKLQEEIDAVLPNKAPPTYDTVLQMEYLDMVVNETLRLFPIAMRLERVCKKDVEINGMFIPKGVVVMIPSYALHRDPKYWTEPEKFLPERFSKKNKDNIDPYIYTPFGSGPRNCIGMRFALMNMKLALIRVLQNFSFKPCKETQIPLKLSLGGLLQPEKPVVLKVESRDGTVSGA

SMILES | IC50
C[C@H](Oc1cc2cc(F)ccc2nc1N)c1[nH]c(=O)ccc1-n1cccn1 [PF-07059013] | > 30 µM

tested on: not listed separately; experiment: Modulation activity at HbS in sickle Townes mouse assessed as decrease in RBC sickling at 200 mg/kg, po BID for 15 days dosed via gavage by Hemox-analyzer based assay; assay type: functional; design: scale not given: the % may be the effect or the level left; details: time 15 day

SMILES | Activity
C[C@H](Oc1cc2cc(F)ccc2nc1N)c1[nH]c(=O)ccc1-n1cccn1 [PF-07059013] | 37.8%

target: T1, Voltage-gated inwardly rectifying potassium channel KCNH2 (Homo sapiens, UniProt Q12809); experiment: Binding affinity to human ERG by dofetilide fluorescence polarization binding assay; details: not given
T1 sequence (Q12809 whole entry): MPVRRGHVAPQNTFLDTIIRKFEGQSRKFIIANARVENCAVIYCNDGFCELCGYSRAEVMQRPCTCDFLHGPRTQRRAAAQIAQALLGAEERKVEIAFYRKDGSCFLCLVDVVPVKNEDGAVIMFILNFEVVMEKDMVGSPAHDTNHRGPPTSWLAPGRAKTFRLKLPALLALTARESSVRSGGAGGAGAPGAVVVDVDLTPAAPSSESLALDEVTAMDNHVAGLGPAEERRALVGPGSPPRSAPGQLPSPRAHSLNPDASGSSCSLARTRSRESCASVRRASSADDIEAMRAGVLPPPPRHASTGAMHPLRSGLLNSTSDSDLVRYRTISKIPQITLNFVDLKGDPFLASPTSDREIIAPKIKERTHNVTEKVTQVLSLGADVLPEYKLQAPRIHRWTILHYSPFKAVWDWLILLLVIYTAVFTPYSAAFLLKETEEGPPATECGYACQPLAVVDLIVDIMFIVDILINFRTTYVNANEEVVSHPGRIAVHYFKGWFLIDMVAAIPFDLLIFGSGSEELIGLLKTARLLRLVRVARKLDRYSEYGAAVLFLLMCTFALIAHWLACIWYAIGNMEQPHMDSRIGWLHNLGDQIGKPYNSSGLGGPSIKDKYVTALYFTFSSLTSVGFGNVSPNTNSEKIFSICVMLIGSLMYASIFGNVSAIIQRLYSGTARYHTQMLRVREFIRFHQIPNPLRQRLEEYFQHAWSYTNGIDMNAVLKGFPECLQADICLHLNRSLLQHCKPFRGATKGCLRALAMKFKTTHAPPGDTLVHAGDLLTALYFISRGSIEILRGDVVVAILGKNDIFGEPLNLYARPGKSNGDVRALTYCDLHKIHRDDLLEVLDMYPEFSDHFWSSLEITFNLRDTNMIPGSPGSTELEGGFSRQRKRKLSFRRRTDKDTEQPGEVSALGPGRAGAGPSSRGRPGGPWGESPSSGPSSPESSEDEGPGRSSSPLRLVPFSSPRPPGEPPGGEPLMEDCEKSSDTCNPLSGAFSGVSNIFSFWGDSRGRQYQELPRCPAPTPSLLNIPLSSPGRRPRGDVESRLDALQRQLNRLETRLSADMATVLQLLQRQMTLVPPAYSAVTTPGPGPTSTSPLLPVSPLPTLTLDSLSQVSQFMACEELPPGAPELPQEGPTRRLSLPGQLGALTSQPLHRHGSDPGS

SMILES | Ki
Cc1n[nH]cc1-c1cnc(N)c(O[C@@H](C)c2cc(F)ccc2-n2cccn2)c1 | 3.8 µM
C[C@H](Oc1cc2cc(C(N)=O)ccc2nc1N)c1cc2c(cnn2CCO)cc1-n1cccn1 | > 40 µM
C[C@H](Oc1cc2cc(F)ccc2nc1N)c1[nH]c(=O)ccc1-n1cccn1 [PF-07059013] | > 36 µM
C[C@H](Oc1cc2cc(F)ccc2nc1N)c1cc2c(cnn2CC(=O)O)cc1-n1cccn1 | > 40 µM
C[C@H](Oc1cc2cc(F)ccc2nc1N)c1cc2c(cnn2CCO)cc1-n1cccn1 | 8.3 µM

target: Cytochrome P450 2C9 (Homo sapiens, UniProt P11712); experiment: Inhibition of CYP2C9 (unknown origin); assay type: ADME; details: not given
Sequence (P11712 whole entry): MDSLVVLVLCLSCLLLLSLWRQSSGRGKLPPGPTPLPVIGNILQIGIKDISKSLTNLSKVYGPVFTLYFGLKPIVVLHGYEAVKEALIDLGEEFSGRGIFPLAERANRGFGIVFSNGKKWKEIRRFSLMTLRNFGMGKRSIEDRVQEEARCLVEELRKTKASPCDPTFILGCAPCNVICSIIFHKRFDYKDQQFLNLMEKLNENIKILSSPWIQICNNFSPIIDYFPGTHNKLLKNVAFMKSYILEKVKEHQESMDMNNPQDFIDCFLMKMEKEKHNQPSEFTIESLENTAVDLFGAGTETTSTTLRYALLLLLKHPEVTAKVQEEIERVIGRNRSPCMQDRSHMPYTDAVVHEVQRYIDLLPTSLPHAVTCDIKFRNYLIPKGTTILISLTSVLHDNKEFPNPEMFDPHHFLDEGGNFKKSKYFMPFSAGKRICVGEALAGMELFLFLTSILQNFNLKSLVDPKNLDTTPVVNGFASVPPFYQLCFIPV

SMILES | IC50
C[C@H](Oc1cc2cc(F)ccc2nc1N)c1[nH]c(=O)ccc1-n1cccn1 [PF-07059013] | 24.9 µM

target: T2, CYP1A2 (Homo sapiens, UniProt P05177); experiment: Inhibition of CYP1A2 (unknown origin) at 3 uM relative to control; assay type: ADME; details: not given
T2 sequence (P05177 whole entry): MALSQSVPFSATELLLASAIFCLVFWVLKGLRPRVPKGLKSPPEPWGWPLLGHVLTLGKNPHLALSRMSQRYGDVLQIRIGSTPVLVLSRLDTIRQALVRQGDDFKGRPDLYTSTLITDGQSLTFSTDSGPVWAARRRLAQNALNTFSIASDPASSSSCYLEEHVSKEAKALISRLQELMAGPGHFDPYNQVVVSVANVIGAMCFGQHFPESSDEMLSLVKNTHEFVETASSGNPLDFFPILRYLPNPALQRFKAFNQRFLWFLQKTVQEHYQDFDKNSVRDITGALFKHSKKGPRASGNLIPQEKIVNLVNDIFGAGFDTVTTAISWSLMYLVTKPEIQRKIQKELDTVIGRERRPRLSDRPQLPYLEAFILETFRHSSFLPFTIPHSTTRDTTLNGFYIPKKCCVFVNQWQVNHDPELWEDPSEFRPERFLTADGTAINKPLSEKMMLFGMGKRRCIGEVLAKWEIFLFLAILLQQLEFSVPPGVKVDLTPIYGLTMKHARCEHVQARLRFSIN

SMILES | inhibition at 3 µM
Cc1n[nH]cc1-c1cnc(N)c(O[C@@H](C)c2cc(F)ccc2-n2cccn2)c1 | < 50%

target: T3, Cytochrome P450 1A2 (Homo sapiens, UniProt P05177); experiment: Inhibition of CYP1A2 (unknown origin); assay type: ADME; details: not given
T3 sequence (P05177 whole entry): T2 sequence (P05177 whole entry)

SMILES | IC50
C[C@H](Oc1cc2cc(F)ccc2nc1N)c1[nH]c(=O)ccc1-n1cccn1 [PF-07059013] | 24.4 µM

target: CYP2C9 (Homo sapiens, UniProt P11712); experiment: Inhibition of CYP2C9 (unknown origin) at 3 uM relative to control; assay type: ADME; details: not given
Sequence (P11712 whole entry): as the sequence (P11712 whole entry) above

SMILES | inhibition at 3 µM
Cc1n[nH]cc1-c1cnc(N)c(O[C@@H](C)c2cc(F)ccc2-n2cccn2)c1 | < 50%

tested on: not listed separately; experiment: Modulation of HbS (unknown origin) assessed as stabilization of the oxy-state of hemoglobin by measuring conversion from oxyHb (R) to deoxyHb (T) pre-incubated for 1 hr and measured after 120 mins by oxygen dissociation assay; design: species or system Homo sapiens; details: not given

SMILES | IC50
Cc1n[nH]cc1-c1cnc(N)c(O[C@@H](C)c2cc(F)ccc2-n2cccn2)c1 | 21 µM
C[C@H](Oc1cc2cc(C(N)=O)ccc2nc1N)c1cc2c(cnn2CCO)cc1-n1cccn1 | 4.3 µM
C[C@H](Oc1cc2cc(F)ccc2nc1N)c1[nH]c(=O)ccc1-n1cccn1 [PF-07059013] | 4.8 µM
C[C@H](Oc1cc2cc(C(N)=O)ccc2nc1N)c1nc(OCCO)ccc1-n1cccn1 | 5.3 µM
C[C@H](Oc1cc2cc(F)ccc2nc1N)c1cc2c(cnn2CC(=O)O)cc1-n1cccn1 | 3.7 µM
C[C@H](Oc1cc2cc(F)ccc2nc1N)c1cc2c(cnn2CCO)cc1-n1cccn1 | 4.5 µM

tested on: not listed separately; experiment: Intrinsic clearance in human hepatocytes assessed per million cells; assay type: ADME, cell-based, Hepatocyte; details: read-out: CLH

SMILES | hepatocyte CLint
Cc1n[nH]cc1-c1cnc(N)c(O[C@@H](C)c2cc(F)ccc2-n2cccn2)c1 | 23 µL/min/1e6 cells
C[C@H](Oc1cc2cc(C(N)=O)ccc2nc1N)c1cc2c(cnn2CCO)cc1-n1cccn1 | 4 µL/min/1e6 cells
C[C@H](Oc1cc2cc(F)ccc2nc1N)c1[nH]c(=O)ccc1-n1cccn1 [PF-07059013] | 18 µL/min/1e6 cells
C[C@H](Oc1cc2cc(C(N)=O)ccc2nc1N)c1nc(OCCO)ccc1-n1cccn1 | 3 µL/min/1e6 cells
C[C@H](Oc1cc2cc(F)ccc2nc1N)c1cc2c(cnn2CC(=O)O)cc1-n1cccn1 | 21 µL/min/1e6 cells

species on record: Homo sapiens; experiment: Binding affinity to HbS (unknown origin) by ITC analysis; details: filed as modulator

SMILES | Activity
Cc1n[nH]cc1-c1cnc(N)c(O[C@@H](C)c2cc(F)ccc2-n2cccn2)c1 | Active

target: T4, Cytochrome P450 2C8 (Homo sapiens, UniProt P10632); experiment: Inhibition of CYP2C8 (unknown origin); assay type: ADME; details: not given
T4 sequence (P10632 whole entry): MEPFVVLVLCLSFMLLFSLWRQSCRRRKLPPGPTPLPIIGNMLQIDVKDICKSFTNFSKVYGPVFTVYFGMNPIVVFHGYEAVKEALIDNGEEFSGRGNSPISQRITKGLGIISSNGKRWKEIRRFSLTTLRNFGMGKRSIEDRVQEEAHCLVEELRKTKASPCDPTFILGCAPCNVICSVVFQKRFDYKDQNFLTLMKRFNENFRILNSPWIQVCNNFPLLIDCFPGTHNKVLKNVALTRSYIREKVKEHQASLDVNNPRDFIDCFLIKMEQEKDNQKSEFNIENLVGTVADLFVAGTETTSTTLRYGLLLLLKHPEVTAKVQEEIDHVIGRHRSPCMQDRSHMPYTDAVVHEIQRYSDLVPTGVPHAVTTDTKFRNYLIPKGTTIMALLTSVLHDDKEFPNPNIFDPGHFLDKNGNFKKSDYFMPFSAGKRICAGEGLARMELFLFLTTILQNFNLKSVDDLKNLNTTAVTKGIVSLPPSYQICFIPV

SMILES | IC50
C[C@H](Oc1cc2cc(F)ccc2nc1N)c1[nH]c(=O)ccc1-n1cccn1 [PF-07059013] | 21.8 µM

target: T5, CYP2C8 (Homo sapiens, UniProt P10632); experiment: Inhibition of CYP2C8 (unknown origin) at 3 uM relative to control; assay type: ADME; details: not given
T5 sequence (P10632 whole entry): T4 sequence (P10632 whole entry)

SMILES | inhibition at 3 µM
Cc1n[nH]cc1-c1cnc(N)c(O[C@@H](C)c2cc(F)ccc2-n2cccn2)c1 | < 50%

tested on: not listed separately; experiment: Drug metabolism in human hepatocytes assessed formation of glucuronide metabolites; assay type: ADME, cell-based, Hepatocyte; details: not given

SMILES | Drug metabolism
C[C@H](Oc1cc2cc(F)ccc2nc1N)c1[nH]c(=O)ccc1-n1cccn1 [PF-07059013] | Metabolite_Detected

target: not listed separately; experiment: Binding affinity to purified human cross-linked HbS by SPR analysis; details: not given

SMILES | Kd
Cc1n[nH]cc1-c1cnc(N)c(O[C@@H](C)c2cc(F)ccc2-n2cccn2)c1 | 3.6 µM
C[C@H](Oc1cc2cc(C(N)=O)ccc2nc1N)c1cc2c(cnn2CCO)cc1-n1cccn1 | 0.059 µM
C[C@H](Oc1cc2cc(F)ccc2nc1N)c1[nH]c(=O)ccc1-n1cccn1 [PF-07059013] | 0.034 µM
C[C@H](Oc1cc2cc(C(N)=O)ccc2nc1N)c1nc(OCCO)ccc1-n1cccn1 | 0.142 µM
C[C@H](Oc1cc2cc(F)ccc2nc1N)c1cc2c(cnn2CC(=O)O)cc1-n1cccn1 | 0.009 µM
C[C@H](Oc1cc2cc(F)ccc2nc1N)c1cc2c(cnn2CCO)cc1-n1cccn1 | 0.02 µM

tested on: not listed separately; experiment: Apparent permeability from apical to basolateral side in MDCK-MDR1 cells; assay type: ADME, cell-based, Canis lupus familiaris; details: dog

SMILES | Papp A→B
C[C@H](Oc1cc2cc(F)ccc2nc1N)c1[nH]c(=O)ccc1-n1cccn1 [PF-07059013] | 0.1 ×10⁻⁶ cm/s

target: T1, Voltage-gated inwardly rectifying potassium channel KCNH2; experiment: Inhibition of human ERG by patch clamp assay; details: not given

SMILES | IC50
C[C@H](Oc1cc2cc(F)ccc2nc1N)c1[nH]c(=O)ccc1-n1cccn1 [PF-07059013] | 43 µM

target: CYP3A4 (Homo sapiens, UniProt P08684); experiment: Inhibition of CYP3A4 (unknown origin) at 3 uM relative to control; assay type: ADME; details: not given
Sequence (P08684 whole entry): as the sequence (P08684 whole entry) above

SMILES | inhibition at 3 µM
Cc1n[nH]cc1-c1cnc(N)c(O[C@@H](C)c2cc(F)ccc2-n2cccn2)c1 | < 50%

tested on: not listed separately; experiment: Unbound fraction in human plasma; assay type: ADME, cell-free; details: not given

SMILES | fraction unbound
C[C@H](Oc1cc2cc(F)ccc2nc1N)c1[nH]c(=O)ccc1-n1cccn1 [PF-07059013] | 0.162

tested on: not listed separately; experiment: Protein binding in human blood; assay type: ADME, tissue-based; details: not given

SMILES | PB
C[C@H](Oc1cc2cc(F)ccc2nc1N)c1[nH]c(=O)ccc1-n1cccn1 [PF-07059013] | Dose-dependent effect

target: CYP2D6 (Homo sapiens, UniProt P10635); experiment: Inhibition of CYP2D6 (unknown origin) at 3 uM relative to control; assay type: ADME; details: not given
Sequence (P10635 whole entry): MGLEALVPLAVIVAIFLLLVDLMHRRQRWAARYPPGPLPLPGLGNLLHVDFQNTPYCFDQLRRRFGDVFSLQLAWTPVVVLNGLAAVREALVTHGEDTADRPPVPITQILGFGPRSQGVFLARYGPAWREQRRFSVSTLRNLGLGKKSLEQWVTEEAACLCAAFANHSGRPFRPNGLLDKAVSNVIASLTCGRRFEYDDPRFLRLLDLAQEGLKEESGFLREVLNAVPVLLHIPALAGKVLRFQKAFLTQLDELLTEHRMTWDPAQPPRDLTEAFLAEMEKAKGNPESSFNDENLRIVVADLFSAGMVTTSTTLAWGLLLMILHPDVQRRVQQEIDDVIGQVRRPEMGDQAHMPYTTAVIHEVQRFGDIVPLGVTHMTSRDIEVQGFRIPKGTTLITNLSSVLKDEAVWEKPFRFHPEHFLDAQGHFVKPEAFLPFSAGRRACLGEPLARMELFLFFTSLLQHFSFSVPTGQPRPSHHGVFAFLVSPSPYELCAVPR

SMILES | inhibition at 3 µM
Cc1n[nH]cc1-c1cnc(N)c(O[C@@H](C)c2cc(F)ccc2-n2cccn2)c1 | < 50%

tested on: not listed separately; experiment: Apparent permeability in MDCK cells; assay type: ADME, cell-based, Canis lupus familiaris; details: dog

SMILES | Papp
Cc1n[nH]cc1-c1cnc(N)c(O[C@@H](C)c2cc(F)ccc2-n2cccn2)c1 | 24 ×10⁻⁶ cm/s
C[C@H](Oc1cc2cc(F)ccc2nc1N)c1[nH]c(=O)ccc1-n1cccn1 [PF-07059013] | 20 ×10⁻⁶ cm/s

tested on: Mus musculus; experiment: Binding to HbS in sickle Townes mouse at 10 to 490 mg/kg, po dosed via gavage measured after 0.5 to 24 hrs by Hemox-analyzer based assay; assay type: functional, organism-based; details: dose 10-490 mg/kg, time 0.5-24 hrs

SMILES | PPB
C[C@H](Oc1cc2cc(F)ccc2nc1N)c1[nH]c(=O)ccc1-n1cccn1 [PF-07059013] | Dose-dependent effect

tested on: not listed separately; experiment: Protein binding in human RBC assessed as unbound fraction at 1 mM; assay type: ADME, tissue-based, Erythrocyte; details: red blood cells (RBC)

SMILES | fraction unbound at 1000 µM
C[C@H](Oc1cc2cc(F)ccc2nc1N)c1[nH]c(=O)ccc1-n1cccn1 [PF-07059013] | 0.000598

tested on: not listed separately; experiment: Apparent permeability from basolateral to apical side in MDCK-MDR1 cells; assay type: ADME, cell-based, Canis lupus familiaris; details: dog

SMILES | Papp B→A
C[C@H](Oc1cc2cc(F)ccc2nc1N)c1[nH]c(=O)ccc1-n1cccn1 [PF-07059013] | 14 ×10⁻⁶ cm/s

tested on: not listed separately; experiment: Intrinsic clearance in mouse hepatocytes assessed per million cells; assay type: ADME, cell-based, Hepatocyte; details: read-out: CLH

SMILES | hepatocyte CLint
Cc1n[nH]cc1-c1cnc(N)c(O[C@@H](C)c2cc(F)ccc2-n2cccn2)c1 | 104 µL/min/1e6 cells

target: Cytochrome P450 2D6 (Homo sapiens, UniProt P10635); experiment: Inhibition of CYP2D6 (unknown origin); assay type: ADME; details: not given
Sequence (P10635 whole entry): as above

SMILES | IC50
C[C@H](Oc1cc2cc(F)ccc2nc1N)c1[nH]c(=O)ccc1-n1cccn1 [PF-07059013] | > 30 µM
